Data on eight compounds can be found in US6514979B1, “Synergistic combinations of guanosine analog reverse transcriptase inhibitors and inosine monophosphate dehydrogenese inhibitors and uses therefor” (University of Maryland Biotechnology Institute, priority 1999, dated 2003).

Counter-ions that a name gives are not always drawn. Like-named read-outs stand apart in the source and are kept apart here.

For series [1], the system named is HIV reverse transcriptase M184V. The note with it: cited from earlier work.
For another series, the system named is HIV-1 IIIb. In words: p24 production by HIV-1 IIIb infected PHA-stimulated PBMCs, Greco interaction model. Format: cell-based. The note with it: HIV IIIb in PBMCs; for IC50: p24 day 7, Greco model estimate. As for the experimental part:
(§1) Primary PBMCs were separated from whole blood of HIV seronegative donors by density centrifugation over Ficoll-Hypaque (Sigma). The culture medium consisted of RPMI supplemented with 10% fetal bovine serum (FBS), 2 mM glutamine and penicillin/streptomycin (Gibco, Grand Island, N.Y.). For infection studies involving PBMCs, cells were stimulated with 10 μg/mL phytohemagglutinin (PHA; Boehringer Mannheim, Indianapolis, Ind.) and cultured for 3 days. Stimulated PBMCs were infected by incubation with virus at a multiplicity of infection of 1000 TCID50/d10^6 PBMC for 2 hours. PBMC were then washed three times with PBS and cultured in 5% CO2 at 37° C, in RPMI/10% FBS supplemented with 10 units/mL IL-2 (Boehringer Mannheim) and drugs as appropriate. PBMC were seeded in 96-well flat-bottom plates at a density of 2×10^5 PBMC/200 μL. Following three days of culture, half of the medium was replaced with fresh medium containing IL-2 and drugs. After 7 days of culture HIV-1 p24 production in the culture supernatant was assayed by ELISA (Coulter, Hialeah, Fla.).
Additive antiviral effect was analyzed according to the definition of Loewe, using the interaction model of Greco et al. as was described above. This model is fully parametric, and point estimates of the model parameters are obtained in a traditional weighted, nonlinear least-squares approach. The model follows the equation below: [formula]
where α (alpha) is the synergism-antagonism interaction parameter, IC50.1 and IC50.2 are the drug concentrations resulting in 50% inhibition for drug 1 and drug 2, respectively; D1 and D2 are the concentration of drugs tested; Econ is the control effect in the absence of either drug, E is the observed effect , and m 1 and m 2 are the slope parameters for each drug. If the estimate of α is zero, the drug combination is additive; if α is positive, the interaction is synergistic; if α is negative, the interaction is antagonistic. […] That is, if the 95% confidence interval encompasses zero, the interaction is additive. […] This model was implemented using the ADAPT II programs (D'Argenio D. Z, Schumitzky A. ADAPT II: a program package for simulation identification and optimal experimental design. 1990. Biomedical Simulations Resource, Univ. Of Southern California, Los Angeles). Each drug combination was tested in triplicate so as to obtain an estimate of the variance of the effect at different drug concentration combinations.
The combined effect of abacavir and MA was examined in PBMC culture systems. PBMCs from a seronegative donor were stimulated with PHA and infected with the T-cell tropic isolate HIV-1 IIIb. At the clinically utilized dose (600 mg/day) of abacavir steady state peak serum levels are […] (4.47 μM; e.g.,see Ziagen package insert. Glaxo Wellcome, Inc., Research Triangle Park, N.C.). After a single 1000 mg dose of MA in a healthy individual, the mean peak serum level is 56.5 μM. Therefore, infected cells were cultured in the presence of abacavir from 0 to 4 μM, and in the presence of 0 to 1 μM of MA. On day 7 after infection the number of viable cells was determined by MTT assay (Boehringer Mannheim), and p24 antigen in the culture supernatant was measured.
The interaction of abacavir and MA in the suppression of HIV IIIb replication in PBMCs was analyzed using the Greco model as described above. Each data point was determined in triplicate. Each observation was weighted by the inverse of the observation variance. These parameters and their 95% confidence bounds are shown below: […]

Series [2] relates to HIV-1. Nature of the series: combined effects of MA and available nucleoside analogs (Table 2). In kind it is cell-based. The source says:
Although MA directly depletes cellular guanosine pools through inhibition of IMPDH, this may result secondarily in perturbations of other cellular enzyme activities. Such perturbations could result in beneficial or detrimental therapeutic effects. The combined effects of MA and available nucleoside analogs are described in Table 2: […]

In a further series the test system is cellular guanosine pools. Nature of the series: addition of deoxynucleosides to the culture media. In kind it is cell-based. Particulars: not shown. The source says:
MA may synergize with abacavir via depletion of cellular guanosine pools, effectively increasing the intracellular concentration of abacavir. However, MA may also act via a general inhibitory effect on T lymphocyte proliferation, as has been hypothesized in the case of hydroxyurea (Lori F., Malykh A. G., Foli A., Maserati R., De Antoni A., Minoli L., Padrini D., Degli Antoni A., Barchi E., Jessen H., Wainberg M. A., Gallo R. C., Lisziewicz J. Combination of a drug targeting the cell with a drug targeting the virus controls human immunodeficiency virus type 1 resistance. AIDS Res Hum Retroviruses 1997; 13(16): 1403-9; De Boer R. J., Boucher C. A., Perelson A. S. Target cell availability and the successful suppression of HIV by hydroxyurea and didanosine. AIDS 1998; 12(13): 1567-70).

The subject of series [3] is HIV-1. The note with it: 1-10 μM; cited from earlier work.
The test system of the next series is neutrophil function. Particulars: concentrations of up to 10 μM; cited from earlier work.
A further series relates to IL-2 receptor signaling. The note with it: high concentrations; cited from earlier work.
For series [4] the following is noted: single 1000 mg dose in a healthy individual; cited from earlier work.
The subject of another series is PBMC. In words: MTT cell proliferation assay of PBMC cultures. The note with it: 0.5 μM MA. On the technique in general: Formazan colour is commonly taken as a measure of viable cells.
The target in series [5] is inosine monophosphate dehydrogenase (IMPDH). Particulars: literature values; read-out: Ki for IMPDH inhibition; cited from earlier work.
The next series concerns the target Type II isoform of IMPDH (Homo sapiens, UniProt P12268). Particulars: stimulated lymphocytes isoform; cited from earlier work.
For the next series, the system named is Wild-type HIV. In words: replication of wild-type HIV-1 in PBMCs, day 7 p24. In kind it is cell-based. Particulars: Human immunodeficiency virus 1, PBMC; 4 μM abacavir. Here is the method: as §1
Series [6] deals with resistant HIV encoding M184V. Nature of the series: replication of M184V mutant HIV-1 in PBMCs, day 7 p24. Format: cell-based. Particulars: Human immunodeficiency virus 1, PBMC, read-out: inhibition of resistant HIV encoding M184V. Here is the method: as §1
Series [7] relates to HIV-1. The note with it: monotherapy; cited from earlier work.

`Nc1ccn([C@@H]2CS[C@H](CO)O2)c(=O)n1` (relative stereo) [3TC, (2R,cis)4-amino-1-(2-hydroxymethyl-1,3-oxathiolan-5-yl)-(1H)-pyrimidin-2-one]: the “resistance conferred by M184V” value in [1] is on record as “high level resistance”.
The IC50 is the midpoint of a concentration-inhibition curve. With `COc1c(C)c2c(c(O)c1C/C=C(\C)CCC(=O)OCCN1CCOCC1)C(=O)OC2` [MA, 2-morpholinoethyl ester of mycophenolic acid], in the series with HIV-1 IIIb (Greco model estimate), the “m MA (slope parameter)” value is given as 1.90. For the same compound, the concentration for half-maximal inhibition (IC50) was 110 nM with HIV-1 IIIb (read-out: IC50 MA) and 100 nM in the series with HIV-1 IIIb (Human immunodeficiency virus 1, IIIB, PBMC, 168 h, read-out: IC50 MA). Further, the “antiviral effect of MA alone” value in the series on HIV-1 [2] (0.125 μM MA) turned out to be 1.3; in the series with HIV-1 [2] (0.5 μM MA), 9.3. Besides, in the series on cellular guanosine pools, the “inhibitory effect of MA after addition of deoxyadenosine” value is “no effect”. In addition, the “inhibitory effect of MA after addition of deoxyguanosine” value with cellular guanosine pools is listed as “ablated the inhibitory effect”. Moreover, the “effect on replication of HIV-1 in vitro” value with HIV-1 [3] is “inhibit ed the replication”. For the same compound, the “effect on neutrophil function” value in the series on neutrophil function is given as “do not inhibit neutrophil function”. In addition, the “effect on IL-2 receptor signaling” value with IL-2 receptor signaling is “do not disrupt IL-2 receptor signaling”. Further, the “mean peak serum level” value in [4] was 56.5 µM. Besides, in the series on PBMC, the antiproliferative effect entry is listed as “modest antiproliferative effect”.
The term Ki denotes a dissociation constant, usually derived from enzyme kinetics or from competition with a known ligand. Take `COc1c(C)c2c(c(O)c1C/C=C(\C)CCC(=O)O)C(=O)OC2` [Mycophenolic acid]: the Ki in series [5] is 2 to 10 nM. On Type II isoform of IMPDH, the “sensitivity of Type II isoform versus the isoform predominant in other cell lineages” value is “four times more sensitive”.
Usually inhibition stands for how much of the control response was suppressed. Take `Nc1nc(NC2CC2)c2ncn([C@H]3C=C[C@@H](CO)C3)c2n1` [abacavir, (1S,cis)-4-[2-amino-6-(cyclopropylamino)-9H-purin-9-yl]-2-cyclopentene-1-methanol sulfate]: the “m abacavir (slope parameter)” value with HIV-1 IIIb (Greco model estimate) was 0.70. Moreover, the IC50 with HIV-1 IIIb (read-out: IC50 abacavir) was 630 nM; in the series on HIV-1 IIIb (Human immunodeficiency virus 1, IIIB, PBMC, 168 h, read-out: IC50 abacavir) it was 626 nM. Besides, the inhibition at 4 µM was found to be 98% with Wild-type HIV and 53% in series [6]. Further, the “antiviral effect of nucleoside analog alone” value with HIV-1 [2] (2 μM) was found to be 2.7. Further, in the series on HIV-1 [7], the “drop in plasma HIV-1 RNA” value is 1.55 log.
Turning to `OC[C@@H]1CC[C@H](n2cnc3c(O)ncnc32)O1` [didanosine, 2′,3′-dideoxyinosine], the “antiviral effect of nucleoside analog alone” value in the series with HIV-1 [2] (concentration not given) is on record as 11.
With `Cc1cn([C@H]2C=C[C@@H](CO)O2)c(=O)[nH]c1=O` [stavudine, 2′,3′-dihydro-3′-deoxythymidine], the “antiviral effect of nucleoside analog alone” value in the series on HIV-1 [2] (2 μM) came to 115.
As to `Nc1ccn([C@H]2CC[C@@H](CO)O2)c(=O)n1` [zalcitibine, 2′,3′-dideoxycytidine], the “antiviral effect of nucleoside analog alone” value in the series on HIV-1 [2] (concentration not given) worked out at 3.9.
Consider `Cc1cn([C@H]2C[C@H](N=[N+]=[N-])[C@@H](CO)O2)c(=O)[nH]c1=O` [zidovudine, 3′-azido-3′-deoxythymidine], for which, in the series on HIV-1 [2] (concentration not given), the “antiviral effect of nucleoside analog alone” value is reported as 84.
